Measured values taken from patent US7749760B2, “Vγ9Vδ2 T cell proliferation agent, method for producing activated Vγ9Vδ2 T cells, and uses thereof” (Hyogo College of Medicine, priority 2008, dated 2010).

Test system: Vγ9Vδ2 T cells
Experiment: Production of IFN-γ, TNF and GM-CSF, ELISA of culture supernatants
Format: cell-based, human
Procedure: Supernatants of the culture solutions having various conditions under which Vγ9Vδ2 T cells were cultured were assayed by ELISA so that the production of cytokines (e.g., IFN-γ, TNF, GM-CSF) was measured.
The Vγ9Vδ2 T cells were restimulated both in the presence of IL-18 and in the absence of IL-18. After 24 hours, a supernatant of the culture solution containing IL-18 and a supernatant of the culture solution devoid of IL-18 were compared. In this case also, the result obtained was similar to the above.

[1] = purified activated Vγ9Vδ2 T cells restimulated, 24 hours

IL-18: interleukin 18, cytokine, IFN-γ inducing factor, obtained from GlaxoSmithKline K.K.
production of GM-CSF, supernatant supplemented with IL-18 versus without (data not shown): about 10 times | production of IFN-γ, presence versus absence of IL-18 [1]: far larger production | production of TNFα, presence versus absence of IL-18 [1]: far larger production
